We go through 25 compounds from patent US5747500A, “Antiviral 2, 4-pyrimidinedione derivatives” (priority 1993, dated 1998).

The subject of one data set is HIV. Nature of the data set: inhibition of HIV-induced cytopathic effect in MT-4 cells (MTT method). It is filed as cell-based. Particulars: for EC50: Human immunodeficiency virus 1, MT4, HIV-infected MT-4 cells, 1000 CCID50, 4 or 5 day incubation at 37° C., MTT method, read-out: ED50: Effective concentration for the inhibition of the proliferation of HIV by 50%; for S.I.: Selectivity index (CD50/ED50): ratio CD50/ED50, MT-4 cells. The procedure:
The anti-HIV assays were based on the inhibition of the virus-induced cytopathic effect in MT-4 cells as described in J. Virol. Methods, 16, 171 (1987). Briefly, MT-4 cells were suspended in culture medium at 2.5×10^5 cells/ml and infected with 1000 CCID50 (50% cell culture infective dose) of HIV. Immediately, after virus infection, 100 μl of the cell suspension was brought into each well of a flat-bottomedmicrotiter tray containing various concentrations of the test compounds. After a 4 or 5 day incubation at 37° C., the number of viable cells was determined by the 3-(4,5-dimethylthiazol-2-yl)-2,5-diphenyltetrazoliumbromide (MTT) method, as disclosed in J. Virol. Methods, 20, 309 (1988).
ED50 : Effective concentration for the inhibition of the
proliferation of HIV by 50%

A short description of data set [1]: cytotoxicity: viability of mock-infected MT-4 host cells (MTT method). The class given is cell-based. The conditions noted are these: human, mt-4 cells, read-out: CD50: Cytotoxic concentration that causes death of cells by 50%. As to the method: The cytotoxicity of the compounds of the present invention was assessed in parallel with their antiviral activity. It was based on the viability of mock-infected host cells as determined by the MTT methods (se J. Virol. Methods, 20, 309 (1988)).
CD50 : Cytotoxic concentration that causes death of cells by 50%
In general terms: Formazan colour is commonly taken as a measure of viable cells.

≈ marks a conversion by molar mass, not a printed value.

Take `C=CCn1c(Cc2ccccc2)c(CC)c(=O)[nH]c1=O` [Example 4, 1-allyl-5-ethyl-6-benzyl-2,4-pyrimidinedione]: in the data set with HIV, the EC50 is less than 0.32 µg/mL and the “S.I.: Selectivity index (CD50/ED50)” value is listed as more than 164. In data set [1], the CC50 was 52.5 µg/mL (≈ 194 µM).

With `C#CCn1c(Oc2cc(C)cc(C)c2)c(CC)c(=O)[nH]c1=O` [Example 60, 1-propargyl-5-ethyl-6-(3,5-dimethylphenoxy)-2,4-pyrimidinedione], in the data set on HIV, the EC50 was less than 0.62 µg/mL and the “S.I.: Selectivity index (CD50/ED50)” value is listed as more than 25. The CC50 in data set [1] came out at 15.8 µg/mL (≈ 52.8 µM).

As for `CCc1c(C(=O)c2cc(C)cc(C)c2)n(C/C=C/CN=[N+]=[N-])c(=O)[nH]c1=O` [Example 79, 1-(4-azido-trans-2-butenyl)-5-ethyl-6-(3,5-dimethylbenzoyl)-2,4-pyrimidinedione], in the data set with HIV, the EC50 is less than 0.009 µg/mL and the “S.I.: Selectivity index (CD50/ED50)” value is recorded as more than 911. Besides, the CC50 in data set [1] stood at 8.2 µg/mL (≈ 22.3 µM).

`CCOC/C=C\Cn1c(Sc2ccccc2)c(CC)c(=O)[nH]c1=O` [Example 16]: in the data set with HIV, the EC50 was 2.78 µg/mL (≈ 8.02 µM) and the “S.I.: Selectivity index (CD50/ED50)” value was 6.85. In data set [1], the CC50 was determined as 19 µg/mL (≈ 54.9 µM).

`CCc1c(Sc2cc(C)cc(C)c2)n(C/C=C/c2ccccc2)c(=O)[nH]c1=O` [Example 20]: in the data set on HIV, the EC50 was less than 0.009 µg/mL and the “S.I.: Selectivity index (CD50/ED50)” value is more than 578. Moreover, in data set [1], the CC50 worked out at 5.21 µg/mL (≈ 13.3 µM).

As for `C/C=C\Cn1c(C(=O)c2cc(C)cc(C)c2)c(CC)c(=O)[nH]c1=O` [Example 68, 1-(cis-2-butenyl)-5-ethyl-6-(3,5-dimethylbenzoyl)-2,4-pyrimidinedione], in the data set with HIV, the EC50 was less than 0.032 µg/mL and the “S.I.: Selectivity index (CD50/ED50)” value is reported as more than 162. Further, in data set [1], the CC50 came to 8.21 µg/mL (≈ 25.2 µM).

As to `CC/C=C/Cn1c(Oc2cc(C)cc(C)c2)c(CC)c(=O)[nH]c1=O` [Example 62], in the data set on HIV, the EC50 is less than 0.032 µg/mL and the “S.I.: Selectivity index (CD50/ED50)” value is on record as more than 251. Further, the CC50 in data set [1] came out at 8.05 µg/mL (≈ 24.5 µM).

As for `Cc1cc(C)cc(C(=O)c2c(C(C)C)c(=O)[nH]c(=O)n2C/C=C/CCl)c1` [Example 9, 1-(4-chloro-trans-2-butenyl)-5-isopropyl-6-(3,5-dimethylbenzoyl)-2,4-pyrimidinedione], in the data set with HIV, the EC50 was less than 0.009 µg/mL and the “S.I.: Selectivity index (CD50/ED50)” value was more than 708. Also, the CC50 in data set [1] came to 6.38 µg/mL (≈ 17 µM).

Take `C/C=C/Cn1c(Oc2cc(C)cc(C)c2)c(CC)c(=O)[nH]c1=O` [Example 10, 1-(trans-2-butenyl)-5-ethyl-6-(3,5-dimethylphenoxy)-2,4-pyrimidinedione]: in the data set with HIV, the EC50 was less than 0.01 µg/mL and the “S.I.: Selectivity index (CD50/ED50)” value was > 1,939. Further, the CC50 in data set [1] turned out to be 19.4 µg/mL (≈ 61.7 µM).

For the compound `C#CCn1c(Sc2ccccc2)c(CC)c(=O)[nH]c1=O` [Example 1, 1-propargyl-5-ethyl-6-phenylthio-2,4-pyrimidinedione], in the data set with HIV, the EC50 was less than 0.32 µg/mL and the “S.I.: Selectivity index (CD50/ED50)” value is more than 46. Besides, in data set [1], the CC50 came to 14.8 µg/mL (≈ 51.9 µM).

Consider `CCc1c(C(=O)c2cc(C)cc(C)c2)n(CC=CC(=O)OC)c(=O)[nH]c1=O` [Example 8, 1-(methoxycarbonylallyl)-5-ethyl-6-(3,5-dimethylbenzoyl)-2,4-pyrimidinedione], for which, in the data set on HIV, the EC50 was less than 0.19 µg/mL and the “S.I.: Selectivity index (CD50/ED50)” value is given as more than 143. Besides, the CC50 in data set [1] stood at 27.2 µg/mL (≈ 73.5 µM).

Regarding `CCc1c(C(=O)c2cc(C)cc(C)c2)n(CC=CC(=O)OC(C)C)c(=O)[nH]c1=O` [Example 73, 1-(isopropoxycarbonylallyl)-5-ethyl-6-(3,5-dimethylbenzoyl)-2,4-pyrimidinedione], in the data set on HIV, the EC50 is less than 0.01 µg/mL and the “S.I.: Selectivity index (CD50/ED50)” value is more than 485. Further, the CC50 in data set [1] came to 4.85 µg/mL (≈ 12.2 µM).

For `C/C=C\Cn1c(Oc2cc(C)cc(C)c2)c(C(C)C)c(=O)[nH]c1=O` [Example 71, 1-(cis-2-butenyl)-5-isopropyl-6-(3,5-dimethylphenoxy)-2,4-pyrimidinedione], in the data set with HIV, the EC50 is less than 0.0155 µg/mL and the “S.I.: Selectivity index (CD50/ED50)” value is more than 497. In data set [1], the CC50 came out at 7.71 µg/mL (≈ 23.5 µM).

On to `CCc1c(Sc2cc(C)cc(C)c2)n(C/C=C/CCl)c(=O)[nH]c1=O` [Example 22], for which, in the data set on HIV, the EC50 was less than 0.36 µg/mL and the “S.I.: Selectivity index (CD50/ED50)” value is reported as more than 93. In data set [1], the CC50 stood at 33.8 µg/mL (≈ 92.6 µM).

Take `CCc1c(C(=O)c2cc(C)cc(C)c2)n(C/C=C\c2ccccc2)c(=O)[nH]c1=O` [Example 69, 1-(cis-cinnamyl)-5-ethyl-6-(3,5-dimethylbenzoyl)-2,4-pyrimidinedione]: in the data set with HIV, the EC50 is less than 0.032 µg/mL and the “S.I.: Selectivity index (CD50/ED50)” value was more than 270. Also, in data set [1], the CC50 was 8.67 µg/mL (≈ 22.3 µM).

In the case of `CC/C=C/Cn1c(C(=O)c2cc(C)cc(C)c2)c(C(C)C)c(=O)[nH]c1=O` [Example 53], in the data set with HIV, the EC50 was less than 0.009 µg/mL and the “S.I.: Selectivity index (CD50/ED50)” value was more than 665. For the same compound, the CC50 in data set [1] amounted to 5.99 µg/mL (≈ 16.9 µM).

As to `CC/C=C/Cn1c(C(=O)c2cc(C)cc(C)c2)c(CC)c(=O)[nH]c1=O` [Example 46], in the data set on HIV, the EC50 was less than 0.009 µg/mL and the “S.I.: Selectivity index (CD50/ED50)” value is listed as > 1,015. Besides, in data set [1], the CC50 worked out at 9.14 µg/mL (≈ 26.8 µM).

On to `CC#CCn1c(Sc2cc(C)cc(C)c2)c(CC)c(=O)[nH]c1=O` [Example 25, 1-(2-butynyl)-5-ethyl-6-(3,5-dimethylphenylthio)-2,4-pyrimidinedione], for which, in the data set with HIV, the EC50 was less than 0.69 µg/mL and the “S.I.: Selectivity index (CD50/ED50)” value was more than 90. In data set [1], the CC50 was determined as 62.5 µg/mL (≈ 190 µM).

`C/C=C/Cn1c(Oc2cc(C)cc(C)c2)c(C(C)C)c(=O)[nH]c1=O` [Example 64]: in the data set on HIV, the EC50 was less than 0.009 µg/mL and the “S.I.: Selectivity index (CD50/ED50)” value is given as > 1,098. Further, the CC50 in data set [1] is 9.89 µg/mL (≈ 30.1 µM).

For the compound `CC(=O)OC/C=C/Cn1c(C(=O)c2cc(C)cc(C)c2)c(C(C)C)c(=O)[nH]c1=O` [Example 75, 1-(4-acetoxy-trans-2-butenyl)-5-isopropyl-6-(3,5-dimethylbenzoyl)-2,4-pyrimidinedione], in the data set with HIV, the EC50 was less than 0.009 µg/mL and the “S.I.: Selectivity index (CD50/ED50)” value is on record as > 6,487. Moreover, the CC50 in data set [1] stood at 58.4 µg/mL (≈ 147 µM).

With `CCc1c(Sc2ccccc2)n(C/C=C/c2ccccc2)c(=O)[nH]c1=O` [Example 14], in the data set on HIV, the EC50 was less than 0.032 µg/mL and the “S.I.: Selectivity index (CD50/ED50)” value is recorded as more than 180. The CC50 in data set [1] is 5.77 µg/mL (≈ 15.8 µM).

Turning to `C/C=C/Cn1c(Cc2cc(C)cc(C)c2)c(CC)c(=O)[nH]c1=O` [Example 5, 1-(trans-2-butenyl)-5-ethyl-6-(3,5-dimethylbenzyl)-2,4-pyrimidinedione], in the data set with HIV, the EC50 is less than 0.032 µg/mL and the “S.I.: Selectivity index (CD50/ED50)” value is given as > 1,518. Further, the CC50 in data set [1] was 48.6 µg/mL (≈ 156 µM).

Consider `CCc1c(Oc2cc(C)cc(C)c2)n(C/C=C/C(=O)OC)c(=O)[nH]c1=O` [Example 63], for which, in the data set on HIV, the EC50 was less than 0.032 µg/mL and the “S.I.: Selectivity index (CD50/ED50)” value is listed as more than 224. In addition, the CC50 in data set [1] worked out at 7.17 µg/mL (≈ 20 µM).

With `CC#CCn1c(Cc2cc(C)cc(C)c2)c(CC)c(=O)[nH]c1=O` [Example 39, 1-(2-butynyl)-5-ethyl-6-(3,5-dimethylbenzyl)-2,4-pyrimidinedione], in the data set on HIV, the EC50 is less than 0.049 µg/mL and the “S.I.: Selectivity index (CD50/ED50)” value is more than 176. Also, in data set [1], the CC50 came out at 8.65 µg/mL (≈ 27.9 µM).

Take `C#CCn1c(Sc2cc(C)cc(C)c2)c(CC)c(=O)[nH]c1=O` [Example 24, 1-propargyl-5-ethyl-6-(3,5-dimethylphenylthio)-2,4-pyrimidinedione]: in the data set on HIV, the EC50 is less than 0.032 µg/mL and the “S.I.: Selectivity index (CD50/ED50)” value is more than 56. Besides, the CC50 in data set [1] turned out to be 1.81 µg/mL (≈ 5.76 µM).
